Source: patent publication US20140206763A1, “PHENYLBUTYRATE FOR TREATMENT OF SPORADIC INCLUSION-BODY MYOSITIS AND DISORDERS RELATING TO AUTOPHAGY IMPAIRMENT OR AMYLOID BETA 42 ACCUMULATION” (UNIVERSITY OF SOUTHERN CALIFORNIA, priority 2013, published 2014)
Entries after “also recorded” stand apart in the source; their conditions may differ.

Experiments:
[1] = patients with urea cycle-disorders, compared with NaPB; cited from earlier work
NBR1 = NBR1 immunoblot with densitometric analysis in CHMFs; format: cell-based, human; conditions: for increase of NBR1 levels: exposure to inhibitor alone, vs control CHMFs
Method: (§1) Primary cultures of normal human muscle were established as routinely performed in our laboratory (Askanas and Engel, 1992) from archived satellite cells of portions of diagnostic muscle biopsies from patients who, after all tests were performed, were considered free of muscle disease. Each experiment was performed on 3-9 different culture sets, each established from satellite cells derived from a different muscle biopsy. 10-15 days after myoblast fusion, the well-differentiated myotubes were, as previously described (Nogalska et al., 2012; Nogalska et al., 2010b), exposed for 24 hours to either: a) chloroquine (Chl), a lysosomotropic agent raising lysosomal pH and inhibiting activities of cathepsins (Shacka et al., 2006) (50 μM, Sigma-Aldrich, St. Louis, Mo.); or b) bafilomycin Al (Baf), an inhibitor of lysosomal V-ATPase causing an increase in lysosomal pH and inhibiting activities of cathepsins (Shacka et al., 2006) (25 nM, Sigma-Aldrich). CHMFs were also treated with NaPB (Tocris/R&D Systems, Minneapolis, Minn.) in doses ranging from 1-15 mM, used either alone or together with chloroquine or bafilomycin.
(§2) CHMFs were harvested in RIPA buffer and immunoblotted, as previously detailed (D'Agostino et al., 2011; Nogalska et al., 2012; Nogalska et al., 2010b) using antibodies against LC3 (1:500, Novus Biologicals, Littleton, Colo.), p62 (1:100, A-6, Santa Cruz Biotechnology) or NBR1 (1:700). Aβ42 oligomers were studied using 6E10 antibody (1:500, Covance, Princeton, N.J.), as described (Nogalska et al., 2010a). Blots were developed using anti-rabbit or anti-mouse WesternBreeze chemiluminescence kits (Invitrogen). Protein loading was evaluated by the actin band (1:600, C-2, Santa Cruz Biotechnology). Quantification of the immunoreactivity was performed by densitometric analysis using NIH Image J 1.310 software.

Cathepsin D = assay: Measurement of Cathepsin D activity in CHMF homogenates; format: cell-based, human; conditions: for reduction of Cathepsin D activity: exposure to inhibitor alone, vs control CHMFs
Method: as §1
Cathepsin D [EC 3.4.23.5] activity was measured utilizing a Cathepsin D Assay Kit (Sigma, St. Louis, Mo.) according to manufacturer's instructions and as previously detailed (Nogalska et al., 2010b). Homogenates were prepared in phosphate buffer-saline with addition of CHAPS (0.05%) (Sigma-Aldrich). All samples were measured in duplicate. The fluorescence emission excited at 355 nm was recorded at 405 nm every 2 minutes. Activity of cathepsin D measured in the linear phase of the reaction was expressed as fluorescence-intensity per minute.

Cathepsin B = assay: Measurement of Cathepsin B activity in CHMFs; format: cell-based, human; conditions: for reduction of Cathepsin B activity: exposure to inhibitor alone, vs control CHMFs
Method: as §1
Cathepsin B [EC 3.4.22.1] activity was measured as described (Nogalska et al., 2010b). Samples were measured in duplicate. All samples were incubated at 37° C. for 45 min, and the fluorescence emission excited at 355 nm was recorded at 444 nm. Activity of cathepsin B was expressed as arbitrary fluorescence units.

Aβ42 oligomers = Aβ42 oligomers immunoblot (6E10 antibody) in CHMFs; format: cell-based, human
Method: Primary cultures of normal human muscle were established as routinely performed in our laboratory (Askanas and Engel, 1992) from archived satellite cells of portions of diagnostic muscle biopsies from patients who, after all tests were performed, were considered free of muscle disease. Each experiment was performed on 3-9 different culture sets, each established from satellite cells derived from a different muscle biopsy. […]
as §2, with “Aβ42 oligomers were studied using 6E10 antibody (1:500, Covance, Princeton, N.J.), as described (Nogalska et al., 2010a). Blots were developed using anti-rabbit or anti-mouse WesternBreeze chemiluminescence kits (Invitrogen).” left out

control CHMFs = assay: Morphology and muscle-fiber viability of control CHMFs; format: cell-based, human; conditions: 15 mM NaPB
Method: as §1

GFP-LC3 = GFP-LC3 puncta count (autophagosome accumulation) in CHMFs; format: cell-based, human
Method: To morphologically evaluate accumulation of autophagosomes, three different tissue-culture sets (experiments) were transduced with PremoAutophagy Sensor GFP-LC3 (Invitrogen, Carlsbad, Calif.) according to the manufacturer's instructions. 24 hours later, CHMFs were treated with chloroquine as described above. Counting of the GFP-LC3 puncta in the muscle fibers was performed on all three different culture experiments. Each experiment involved the same three different conditions: control, chloroquine-exposed, and chloroquine-exposed-plus-NaPB-treated cultures. In each experiment, each condition was composed of two cultures. For the analysis, eight random fields per condition of each culture were photographed (magnification ×40) in each of the three experiments. Overall, in each of the three conditions GFP-LC3 puncta were evaluated in more than 80 fibers, independently by two investigators (AN and CD). In addition, GFP-LC3 transduced CHMFs were also processed for immunofluorescence of NBR1 (1:100, 4BR, Santa Cruz Biotechnology, Santa Cruz, Calif.).

[2] = test system: cultured human muscle fibers (CHMFs); assay: Vacuolization of cultured human muscle fibers by phase-contrast microscopy; format: cell-based; conditions: for vacuolization of chloroquine-exposed CHMFs: chloroquine 50 μM 24 hours + NaPB 15 mM, vs chloroquine alone; for vacuolization of CHMFs after exposure to lysosomal inhibitor alone: exposure alone 24 hours, vs control CHMFs
Method: as §1

Aβ42 = Aβ42 ELISA in CHMFs; format: cell-based, human
Method: as §1
To quantify endogenous Aβ42 content in cultured human muscle fibers, we used the “Human β-Amyloid (1-42) ELISA kit, WAKO, High Sensitive” (WAKO Chemicals USA, Inc., Richmond, Va.) as described (Nogalska et al., 2012). Homogenates were freshly prepared in RIPA buffer containing a protease inhibitor cocktail (Roche Diagnostic, Mannheim, Germany). 100 μg of protein per well from each sample were diluted in a Standard Diluent Buffer provided in the kit, added to the assay plates in duplicate, and incubated overnight at 4° C. The ELISA was performed the next day, according to manufacturer's protocol. The absorbance was read at 450 nm.

[3] = cited from earlier work
p62 = p62 immunoblot with densitometric analysis in CHMFs; format: cell-based, human; conditions: for increase of p62: exposure to inhibitor alone, vs control CHMFs
Method: as §1, §2

LC3-II = LC3-II immunoblot with densitometric analysis in CHMFs; format: cell-based, human; conditions: for increase of LC3-II: exposure to inhibitor alone, vs control CHMFs
Method: as §1, §2

γ-secretase = assay: Measurement of γ-secretase activity in CHMFs; format: cell-based, human
Method: as §1
γ-secretase activity was measured as previously described (Nogalska et al., 2012). Briefly, cultures were homogenized in PBS buffer with addition of 0.05% CHAPS. The supernatants containing 50 μg of protein were added to the reaction mixture containing assay buffer (50 mM TRIS-HCl pH 6.8, 2 mM EDTA, 0.25% CHAPS). The reaction was initiated by adding a specific synthetic substrate NMA-Amyloid β-Protein (aa708-715)-Lys-(DNP) Arg-Arg-Arg-amide trifluoroacetate salt (10 μM) (Sigma-Aldrich). After overnight incubation at 37° C., the samples were centrifuged at 16,000×g for 15 minutes, supernatants were transferred to a 96-well plate and the fluorescence emission excited at 390 nm was recorded at 444 nm. Activity of γ-secretase was expressed as arbitrary fluorescence units.

CHMFs = assay: Treatment of CHMFs with HDAC inhibitor compared with PB; format: cell-based, human; conditions: data not shown
[4] = bafilomycin+NaPB (15 mM) vs bafilomycin alone
[5] = chloroquine+NaPB (15 mM) vs chloroquine alone
[6] = autophagy-impaired cultures, not significantly worse than controls
[7] = bafilomycin+NaPB (15 mM) vs bafilomycin without NaPB
[8] = chloroquine alone vs control CHMFs

O=C(CCCc1ccccc1)OCC(COC(=O)CCCc1ccccc1)OC(=O)CCCc1ccccc1 [GPB, 1,2,3-Propanetriyl tris(4-phenylbutanoate)]
lowering blood ammonia [1]: as effective as NaPB

O=C([O-])CCCc1ccccc1.[Na+] [NaPB, Sodium 4-phenylbutanoate]
decrease of NBR1 (NBR1; [4]): 34%
reduction of increased NBR1 (NBR1; [5]): 63%
effect on protein level of NBR1 (NBR1; control CHMFs, NaPB 1-15 mM): did not exert any effect
Cathepsin D value after NaPB treatment compared with controls (ANOVA) (Cathepsin D; [6]): fully corrected
higher activity of Cathepsin D (Cathepsin D; [7]): 15%
increase of Cathepsin D activity (Cathepsin D; [5]): 40%
effect on Cathepsin D activity (Cathepsin D; control CHMFs, NaPB 1-15 mM): did not exert any effect
effect on Cathepsin B activity in ER-stress model (Cathepsin B; ER-stress-induced CHMFs, data not shown): mitigates the reduction of Cathepsin B activity
higher activity of Cathepsin B (Cathepsin B; [7]): 40%
increase of Cathepsin B activity (Cathepsin B; [5]): 70%
effect on Cathepsin B activity (Cathepsin B; control CHMFs, NaPB 1-15 mM): did not exert any effect
lower amount of Aβ42 oligomers (Aβ42 oligomers; [4]): 60%
decrease of Aβ42 oligomers (Aβ42 oligomers; chloroquine+NaPB (15 mM) vs autophagy-impaired NaPB-non-treated CHMFs): 65%
adverse morphologic abnormalities and muscle-fiber viability (control CHMFs): did not produce either adverse morphologic abnormalities or affect muscle-fiber viability
decrease of number of GFP-LC3 foci (GFP-LC3; chloroquine+NaPB (15 mM) vs chloroquine-only exposed cultures): 53%
vacuolization of bafilomycin-exposed CHMFs ([2]; bafilomycin 25 nM 24 hours + NaPB 15 mM, vs bafilomycin alone): nearly completely prevented their vacuolization; also recorded: morphologically prominent decrease of their vacuolization
vacuolization of chloroquine-exposed CHMFs [2]: virtually completely prevented their vacuolization
vacuolization of chloroquine-exposed CHMFs ([2]; listed as PB): prominently eliminating their vacuolization
Aβ42 by ELISA value after NaPB treatment compared with controls (ANOVA) (Aβ42; [6]): fully corrected
lower amount of Aβ42 by ELISA (Aβ42; bafilomycin+NaPB (15 mM) vs bafilomycin alone, 2 culture sets, statistical significance not reached): 28%
decrease of Aβ42 by ELISA (Aβ42; [5]): 53%
tolerability, daily and long-term ([3]; infants, children and adults with urea-cycle disorders): usually well tolerated
tolerability in preliminary trials ([3]; patients with amyotrophic lateral sclerosis (ALS)): well-tolerated
decrease of p62 (p62; [4]): 83%
decrease of p62 (p62; [5]): 74%
effect on p62 at lower dose (p62; chloroquine-exposed CHMFs, NaPB 5 mM): significantly decreased p62; also recorded: statistically significantly decreased
effect on protein level of p62 (p62; control CHMFs, NaPB 1-15 mM): did not exert any effect
decrease of LC3-II (LC3-II; [4]): 36%
decrease of LC3-II (LC3-II; [5]): 54%
effect on protein level of LC3-II (LC3-II; control CHMFs, NaPB 1-15 mM): did not exert any effect
γ-secretase activity value after NaPB treatment compared with controls (ANOVA) (γ-secretase; [6]): fully corrected
decrease of γ-secretase activity (γ-secretase; chloroquine+NaPB (15 mM) vs untreated autophagy-impaired CHMFs): 56%

CC(/C=C/C(=O)NO)=C\[C@@H](C)C(=O)c1ccc(N(C)C)cc1 [trichostatinA]
ameliorative effect compared with PB (CHMFs): did not have an effect similar to that achieved with PB

CO/C1=C\C(C)=C\[C@@H](C)[C@@H](O)[C@@H](C)C/C(C)=C/C=C/[C@H](OC)[C@@H]([C@@H](C)[C@@H](O)[C@H](C)[C@@]2(O)C[C@@H](O)[C@H](C)[C@@H](C(C)C)O2)OC1=O [bafilomycin, bafilomycin Al]
increase of NBR1 levels (NBR1): 9 fold
reduction of Cathepsin D activity (Cathepsin D): 25%
reduction of Cathepsin B activity (Cathepsin B): 85%
vacuolization of CHMFs after exposure to lysosomal inhibitor alone [2]: induced pronounced vacuolization
Aβ42 by ELISA after inhibitor exposure (Aβ42; Baf-exposed CHMFs, two separate experiments): elevated
increase of p62 (p62): 18 fold
increase of LC3-II (LC3-II): 17 fold

CCN(CC)CCCC(C)Nc1ccnc2cc(Cl)ccc12 (centres unmarked) [chloroquine]
increase of NBR1 levels (NBR1): 5 fold
reduction of Cathepsin D activity (Cathepsin D): 40%
reduction of Cathepsin B activity (Cathepsin B): 60%
increase of number of GFP-LC3 foci/puncta per muscle fiber (GFP-LC3; exposure alone, vs control CHMFs): 8 fold
vacuolization of CHMFs after exposure to lysosomal inhibitor alone [2]: induced pronounced vacuolization
increase of Aβ42 by ELISA (Aβ42; [8]): 60%
increase of p62 (p62): 9 fold
increase of LC3-II (LC3-II): 9 fold
γ-secretase activity after inhibitor exposure (γ-secretase; [8]): significantly increased γ-secretase activity
